The subject of data set [1] is SIRPα signalling induced by Raji cells. Briefly: Assay B: SIRPα signalling assay using Raji cells. The class given is cell-based. The note with it: Homo sapiens, 48 h compound incubation, Jurkat PathHunter SIRPaV1 reporter cells, read-out: Inhibition of SIRPα signalling induced by Raji cells: IC50. As for the experimental part: (§1) Two cell types are independently used: the Raji cell line (lymphoblast-like human cell line derived from B lymphocytes from a Burkitt's lymphoma patient in 1963) and A549 cells (adenocarcinoma human alveolar basal epithelial cells).
(§2) Test compounds were dissolved in 100% DMSO and serially diluted into a white 384-well microtiter cell culture plate (PerkinElmer #60076780 in case of Raji assay; PDL-coated plates Greiner #781945 in case of A549 assay), 5000 Raji cells (ATCC #CC86) or 5000 A549 cells (ATCC #CCL-185) in Assay Complete Cell Plating reagent 30 (DiscoverX 93-0563R30B) were added per well. The assay plate was incubated for 48 h at 37° C., 95% humidity and 5% CO2. 15000 reporter cells (Jurkat PathHunter SIRPaV1, DiscoverX #93-1135C19) were added to each well, and the plate was incubated for 5 h at 37° C., 95% humidity and 5% CO2. Bioassay reagent 1 of the PathHunter Bioassay detection kit (DiscoverX 93-0001) was added to each well of the plate using a multichannel pipette followed by a 15 min incubation at room temperature. Afterwards bioassay reagent 2 was added followed by 60 min incubation at room temperature (incubation in the dark). The analysis of the data was performed using the luminescence signal generated by beta-galactosidase in the PathHunter reporter cell line. The luminescence measurement was done using a Pherastar Multi-Mode Reader. Dose-response curves & IC50 data were calculated with 4-parameter sigmoidal dose response formula.

Data set [2] concerns SIRPα signalling induced by A549 cells. Briefly: Assay B: SIRPα signalling assay using A549 cells. Format: cell-based. Conditions: Homo sapiens, 48 h compound incubation, Jurkat PathHunter SIRPaV1 reporter cells, read-out: Inhibition of SIRPα signalling induced by A549 cells: IC50. As to the method: as §1, §2
Data set [3] can be described thus: Assay C: Permeability in CACO-2 cells. Format: in vitro ADME. Conditions: human, pH 7.2; for efflux ratio: Caco-2, permeability B−A/permeability A−B; for Papp A→B: Caco-2, apical to basolateral. As for the experimental part: Caco-2 cells (1-2×10^5 cells/1 cm^2 area) are seeded on filter inserts (Costar transwell polycarbonate or PET filters, 0.4 μm pore size) and cultured (DMEM) for 10 to 25 days. Compounds are dissolved in appropriate solvent (like DMSO, 1-20 mM stock solutions). […] The transport solution (TL) is applied to the apical or basolateral donor side for measuring A-B or B-A permeability (3 filter replicates), respectively. Samples are collected at the start and end of experiment from the donor and at various time intervals for up to 2 hours also from the receiver side for concentration measurement by HPLC-MS/MS or scintillation counting. Sampled receiver volumes are replaced with fresh receiver solution.
Efflux ratio (ER)=permeability B−A/permeability A−B
(In general: Caco-2 monolayers are a common model of the intestinal barrier.)

The target of data set [4] is T1, QPCTL (Homo sapiens, UniProt Q9NXS2).
T1 construct: made in house
T1 sequence (Q9NXS2 whole entry): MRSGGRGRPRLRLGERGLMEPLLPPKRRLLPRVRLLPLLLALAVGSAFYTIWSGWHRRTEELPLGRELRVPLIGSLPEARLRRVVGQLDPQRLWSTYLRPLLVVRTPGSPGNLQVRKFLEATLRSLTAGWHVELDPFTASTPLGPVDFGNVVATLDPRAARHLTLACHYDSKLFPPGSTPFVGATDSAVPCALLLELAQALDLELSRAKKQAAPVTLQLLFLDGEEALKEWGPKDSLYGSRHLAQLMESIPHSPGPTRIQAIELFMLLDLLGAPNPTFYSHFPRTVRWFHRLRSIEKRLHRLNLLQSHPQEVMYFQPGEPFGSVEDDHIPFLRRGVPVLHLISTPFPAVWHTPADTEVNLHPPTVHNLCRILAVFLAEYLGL
Nature of the data set: Assay A: biochemical QPCTL activity assay (MALDI-TOF MS, CD47 peptide substrate). Conditions: 0.5 nM enzyme, 10 μM CD47 peptide substrate; read-out: Inhibition of QPCTL: IC50. As to the method:
(§3) QPCT or QPCTL dependent conversion of N-terminal glutamine to pyroglutamate of CD47 was monitored via MALDI-TOF MS. Test compounds were dissolved in 100% DMSO and serially diluted into clear 1,536-well microtiter plates. Enzymatic reactions were set up in assay buffer containing 20 mM Tris pH 7.5, 0.1 mM TCEP, 0.01% BSA, and 0.001% Tween20. […] The plates were incubated for 10 min in a humidified incubator at 24° C. Subsequently, 2.5 µL of CD47 peptide substrate surrogate (^19[…]^33) was added to each well (final concentration: 10 μM for QPCTL/20 μM for QPCT). The plates were mixed for 30 sec at 1,000 rpm and subsequently incubated for 40 min in a humidified incubator at 24° C. […] The plates were sealed with an adhesive foil, mixed for 30 s at 1,000 rpm and stored at room temperature until preparation of the MALDI target plates. MALDI target plates were prepared as described previously. […] QPCT or QPCTL activity was monitored by calculating the ratio between product and internal standard signals followed by normalization to high (100% activity) and low (0% activity) controls. Determination of compound potencies was obtained by fitting the dose-response data to a four-parameter logistical equation.

The target of data set [5] is T2, QPCT (Homo sapiens, UniProt Q16769).
T2 construct: purchased Origine (so in the source)
T2 sequence (Q16769 29-361): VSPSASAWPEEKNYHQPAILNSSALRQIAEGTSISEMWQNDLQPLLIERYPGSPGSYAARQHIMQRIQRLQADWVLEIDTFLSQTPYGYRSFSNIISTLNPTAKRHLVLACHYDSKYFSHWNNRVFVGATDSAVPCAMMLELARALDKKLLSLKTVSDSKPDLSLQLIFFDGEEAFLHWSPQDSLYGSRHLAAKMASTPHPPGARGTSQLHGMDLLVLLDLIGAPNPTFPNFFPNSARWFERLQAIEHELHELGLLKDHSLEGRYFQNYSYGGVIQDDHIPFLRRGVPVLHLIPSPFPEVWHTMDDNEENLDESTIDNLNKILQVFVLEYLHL
Nature of the data set: Assay A: biochemical QPCT activity assay (MALDI-TOF MS, CD47 peptide substrate). Conditions: 0.5 nM enzyme, 20 μM CD47 peptide substrate; read-out: Inhibition of QPCT: IC50. As for the experimental part: as §3

For orientation: IC50 means the concentration at which inhibition is half-maximal. In general, efflux ratio refers to a quotient of directional permeabilities that is used to spot active efflux. The term Papp A→B denotes how fast a substance crosses the layer from the apical side. A low value points to poor permeation.

Turning to `COc1ccc(-c2ccc(F)nc2)c(N2CCC(c3nncn3C)CC2)c1C#N` [Example 20], the IC50 in data set [1] came to 102 nM; in data set [2], 24 nM; in data set [4], 1 nM; in data set [5], 4 nM. The efflux ratio in data set [3] was determined as 12.5. The compound further displayed a Papp A→B in data set [3] of 5.6 ×10⁻⁶ cm/s.

In the case of `Cn1cnnc1C1CCN(c2c(C#N)cc(C#N)cc2-c2ccc(F)nc2)CC1` [Example 21], the half-maximal inhibitory concentration (IC50) in data set [1] was found to be 324 nM; in data set [2] it was 280 nM; in data set [4], 5 nM; in data set [5], 25 nM. In data set [3], the efflux ratio turned out to be 39.1. Besides, the Papp A→B in data set [3] was found to be 1.1 ×10⁻⁶ cm/s.

`Cn1cnnc1C1(F)CCN(c2c(C#N)cc(C(F)(F)F)cc2-c2cnc3nc(C(F)(F)F)cn3c2)CC1` [Example 22]: the concentration for half-maximal inhibition (IC50) worked out at 17 nM in data set [1], 39 nM in data set [2], 1 nM in data set [4] and 1 nM in data set [5]. Moreover, in data set [3], the efflux ratio is 10.5. For the same compound, the Papp A→B in data set [3] came out at 2.1 ×10⁻⁶ cm/s.

Regarding `COc1cc(-c2cc(C(F)(F)F)cc(C#N)c2N2CCC(F)(c3nncn3C)CC2)cnn1` [Example 23], the 50% inhibitory concentration (IC50) in data set [1] stood at 278 nM; in data set [2], 145 nM; in data set [4], 21 nM; in data set [5], 14 nM. In data set [3], the efflux ratio came out at 4.3. The compound also displayed a Papp A→B in data set [3] of 13 ×10⁻⁶ cm/s.

In the case of `Cn1cnnc1C1(F)CCN(c2c(C#N)cc(F)cc2-c2cnc3nn(C(C)(C)C)c(Cl)c3c2)CC1` [Example 24], the IC50 came to 16 nM in data set [1], 13 nM in data set [2], 2 nM in data set [4] and 1 nM in data set [5]. Also, the efflux ratio in data set [3] was determined as 1.7. Also, the apparent permeability from apical to basolateral (Papp A→B) in data set [3] worked out at 46 ×10⁻⁶ cm/s.

For the compound `Cn1cnnc1C1(F)CCN(c2c(C#N)cc(F)cc2-c2cnc3nn(C(C)(C)C)cc3c2)CC1` [Example 25], the concentration for half-maximal inhibition (IC50) in data set [1] was found to be 23 nM; in data set [2] it was 10 nM; in data set [4] it was 2 nM; in data set [5] it was 1 nM. Also, the efflux ratio in data set [3] worked out at 9.7. For the same compound, the Papp A→B in data set [3] is 7.5 ×10⁻⁶ cm/s.

In the case of `Cn1cnnc1C1CCN(c2c(C#N)cc(F)cc2-c2cnc3nn(C(C)(C)C)c(Cl)c3c2)CC1` [Example 26], the IC50 was determined as 16 nM in data set [1], 8 nM in data set [2], 1 nM in data set [4] and 1 nM in data set [5]. Also, the efflux ratio in data set [3] is 3.9. The Papp A→B in data set [3] was determined as 14 ×10⁻⁶ cm/s.

For the compound `Cn1cnnc1C1(F)CCN(c2c(-c3cnc4nn(C(C)(C)C)cc4c3)ccc(Cl)c2C#N)CC1` [Example 27], the IC50 came to 19 nM in data set [1], 7 nM in data set [2], 1 nM in data set [4] and 1 nM in data set [5]. Besides, in data set [3], the efflux ratio is 19.1. Further, the apparent permeability from apical to basolateral (Papp A→B) in data set [3] stood at 2.2 ×10⁻⁶ cm/s.

Turning to `Cn1cnnc1C1(F)CCN(c2c(-c3ccc(F)nc3)ccc(Cl)c2C#N)CC1` [Example 28], the IC50 in data set [1] was determined as 93 nM; in data set [2], 12 nM; in data set [4], 2 nM; in data set [5] it was 2 nM. The efflux ratio in data set [3] is 1.7. In addition, the apical-to-basolateral permeability (Papp A→B) in data set [3] came to 34 ×10⁻⁶ cm/s.

For `Cn1cnnc1C1(F)CCN(c2c(-c3ccc(F)nc3)ccc(C(F)(F)F)c2C#N)CC1` [Example 29], the IC50 was found to be 78 nM in data set [1], 19 nM in data set [2], 1 nM in data set [4] and 2 nM in data set [5]. In addition, in data set [3], the efflux ratio was 1.4. In data set [3], this compound had a Papp A→B of 53 ×10⁻⁶ cm/s.

Regarding `Cn1cnnc1C1(F)CCN(c2c(-c3cnc4nn(C(C)(C)C)cc4c3)ccc(C(F)(F)F)c2C#N)CC1` [Example 30], the 50% inhibitory concentration (IC50) is 19 nM in data set [1], 8 nM in data set [2], 1 nM in data set [4] and 1 nM in data set [5]. Besides, the efflux ratio in data set [3] was determined as 22.9. In data set [3], this compound yielded an apical-to-basolateral permeability (Papp A→B) of 1.7 ×10⁻⁶ cm/s.

On to `Cn1cnnc1C1CCN(c2c(-c3ccc(F)nc3)ccc(C(F)(F)F)c2C#N)CC1` [Example 31], for which the half-maximal inhibitory concentration (IC50) in data set [1] came to 77 nM; in data set [2], 19 nM; in data set [4], 1 nM; in data set [5] it was 4 nM. The efflux ratio in data set [3] stood at 3.5. Moreover, the apical-to-basolateral permeability (Papp A→B) in data set [3] stood at 22 ×10⁻⁶ cm/s.

For `Cn1cnnc1C1CCN(c2c(-c3cnc4nn(C(C)(C)C)cc4c3)ccc(C(F)(F)F)c2C#N)CC1` [Example 32], the half-maximal inhibitory concentration (IC50) was found to be 70 nM in data set [1], 36 nM in data set [2], 2 nM in data set [4] and 2 nM in data set [5]. In data set [3], the efflux ratio came out at 146. For the same compound, the apparent permeability from apical to basolateral (Papp A→B) in data set [3] worked out at 0.2 ×10⁻⁶ cm/s.

Consider `COc1ccc(-c2cnc3nn(C(C)(C)C)cc3c2)c(N2CCC(F)(c3nncn3C)CC2)c1C#N` [Example 33], for which the IC50 worked out at 20 nM in data set [1], 11 nM in data set [2], 1 nM in data set [4] and 1 nM in data set [5]. Moreover, in data set [3], the efflux ratio is 51.9. The compound further registered an apparent permeability from apical to basolateral (Papp A→B) in data set [3] of 0.8 ×10⁻⁶ cm/s.

With `Cn1cnnc1C1(F)CCN(c2c(C#N)cc(C(F)(F)F)cc2-c2cnc3nc(C4(C)CC4)nn3c2)CC1` [Example 35], the IC50 in data set [1] came to 16 nM; in data set [2] it was 6 nM; in data set [4], 1 nM; in data set [5], 2 nM. In addition, in data set [3], the efflux ratio was 17.1. The same compound yielded an apparent permeability from apical to basolateral (Papp A→B) in data set [3] of 4.8 ×10⁻⁶ cm/s.

In the case of `Cn1cnnc1C1(F)CCN(c2c(C#N)cc(C(F)(F)F)cc2-c2cnc3nn(C(F)(F)F)cc3c2)CC1` [Example 36], the IC50 in data set [1] was determined as 8 nM; in data set [2], 9 nM; in data set [4], 1 nM; in data set [5], 1 nM. Moreover, the efflux ratio in data set [3] amounted to 6.7. In data set [3], this compound yielded a Papp A→B of 5.7 ×10⁻⁶ cm/s.
